Where “and” joins values, the source holds several entries; their conditions need not be identical. Equal entries are not always repeated. Where two headings read alike, the source gives them in different places.
How the values were obtained:
[1] = molecular target: human Bub1 (Homo sapiens (Human), UniProt O43683); assay: Bub1 high ATP kinase assay (TR-FRET); assay type: biochemical
Text: Bub1-inhibitory activity of compounds of the present invention at a high ATP concentration was quantified employing the Bub1 TR-FRET high ATP kinase assay as described in the following paragraphs.
N-terminally His6-tagged recombinant catalytic domain of human Bub1 (amino acids 704-1085), expressed in insect cells (Hi5) and purified by Ni-NTA affinity chromatography and subsequent size exclusion chromatography, was used as enzyme.

[2] = test system: Ba/F3-EGFR-insSVD; assay: Ba/F3 cell survival assay, EGFR-insSVD; assay type: cell-based; conditions: Mus musculus, BaF3, 48 h, read-out: BA/F3 (insSVD) IC50, cell viability, Cell Titer-Glo, 48 h, with 10 ng/mL EGF, without IL-3
Description: (§1) 293T cells from ATCC were transfected with pBABEpuro expression constructs for WT EGFR or EGFR-insSVD and pCL-Eco packaging vector using Fugene-6 transfection reagent from Promega. Plates were incubated at 37° C. for 48 h. Retrovirus was harvested by filtering the media supernatant through a 0.45 μm filter.
(§2) Ba/F3 cells purchased from DSMZ were grown in RPMI+10% FBS+10 ng/mL IL-3 and infected with filtered retroviral supernatant at a 1:2 dilution. Polybrene was added to a concentration of 8 μg/mL, plates were spun for 90 min, and incubated overnight at 37° C. 2 μg/mL puromycin was added to the infected cells 24 h after infection and cells were continually grown in the presence of puromycin and 10 ng/mL IL-3. Following stably expressing Ba/F3 cell lines were generated: Ba/F3-EGFR-WT, Ba/F3-EGFR-insSVD, (Ba/F3-vector-control).
For cell survival assays, Ba/F3 cells were grown to a density of 1-2 million cells per mL, spun down and resuspended in media without IL-3, and replated at a concentration 200,000-500,000 cells per mL. The cells ectopically expressing WT EGFR or EGFR-insSVD were plated with 10 ng/mL Millipore Culture grade EGF. The cells ectopically expressing pBABEpuro empty vector were plated with 10 ng/mL IL-3.
2 days later, cells were plated in 50 μL in a 384 well plate at a concentration of 4000 cells per well for cells assayed in the absence of IL-3 and 2000 cells per well for cells assayed in the presence of IL-3. 100 nL of compound was added to each well using a 100 nL pin head, and plates were incubated at 37° C. for 48 h.
Cell viability was measured by adding 20 μL of Cell Titer-Glo Luminescent Cell Viability Reagent diluted 1:3 in PBS. Plates were sealed with Perkin Elmer Top-Seal, inverted several times to mix, and immediately centrifuged at 1000 rpm for 2 min. Plates were incubated in low light conditions for 8-10 min and luminescence was measured.

[3] = test system: Ba/F3-EGFR-WT; assay: Ba/F3 cell survival assay, WT EGFR; assay type: cell-based
Description: as §1, §2
The cells ectopically expressing WT EGFR or EGFR-insSVD were plated with 10 ng/mL Millipore Culture grade EGF. The cells ectopically expressing pBABEpuro empty vector were plated with 10 ng/mL IL-3.
100 nL of compound was added to each well using a 100 nL pin head, and plates were incubated at 37° C. for 48 h.
Cell viability was measured by adding 20 μL of Cell Titer-Glo Luminescent Cell Viability Reagent diluted 1:3 in PBS. Plates were sealed with Perkin Elmer Top-Seal, inverted several times to mix, and immediately centrifuged at 1000 rpm for 2 min.

[4] = read-out: Bub1 high ATP (2 mM) IC50, 2 mM ATP
[5] = Mus musculus, BaF3, 48 h, read-out: BA/F3 (wild type) IC50, cell viability, Cell Titer-Glo, 48 h, with 10 ng/mL EGF, without IL-3
[6] = read-out: BA/F3 (wild type) IC50, cell viability, Cell Titer-Glo, 48 h, with 10 ng/mL EGF, without IL-3
[7] = Bub1 high ATP (2 mM) IC50, 2 mM ATP

human Bub1, sequence (O43683 704-1085): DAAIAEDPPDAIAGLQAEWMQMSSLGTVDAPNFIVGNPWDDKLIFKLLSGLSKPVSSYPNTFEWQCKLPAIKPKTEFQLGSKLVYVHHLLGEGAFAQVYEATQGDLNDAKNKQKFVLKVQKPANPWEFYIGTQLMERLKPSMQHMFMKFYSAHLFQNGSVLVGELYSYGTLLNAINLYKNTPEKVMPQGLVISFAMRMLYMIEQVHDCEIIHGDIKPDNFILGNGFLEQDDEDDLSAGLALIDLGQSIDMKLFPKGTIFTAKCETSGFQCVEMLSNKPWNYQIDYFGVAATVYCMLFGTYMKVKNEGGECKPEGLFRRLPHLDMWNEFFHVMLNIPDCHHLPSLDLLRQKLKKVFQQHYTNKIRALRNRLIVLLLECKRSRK

SMILES | IC50 [1, 4] | IC50 [2] | IC50 [3, 5] | IC50 [3, 6] | IC50 [1, 7]
COc1c(F)cccc1Nc1c(-c2ccncc2OCC2CCO2)[nH]c2c1C(=O)NCC2 (racemic) [Example 4, 3-(3-fluoro-2-methoxyanilino)-2-{3-[(oxetan-2-yl)methoxy]pyridin-4-yl}-1,5,6,7-tetrahydro-4H-pyrrolo[3,2-c]pyridin-4-one] | 17.4 µM | 0.0593 µM | 0.939 µM |  | 
Cc1c(Cl)cccc1Nc1c(-c2ccncc2OCC2CCO2)[nH]c2c1C(=O)NCC2 (racemic) [Example 7, 3-(3-chloro-2-methylanilino)-2-{3-[(oxetan-2-yl)methoxy]pyridin-4-yl}-1,5,6,7-tetrahydro-4H-pyrrolo[3,2-c]pyridin-4-one] | 2.63 µM | 0.0482 µM | 0.82 µM |  | 
O=C1NCCc2[nH]c(-c3ccncc3OCC3CCO3)c(Nc3cccc(Cl)c3Cl)c21 (racemic) [Example 10, 3-(2,3-dichloroanilino)-2-{3-[(oxetan-2-yl)methoxy]pyridin-4-yl}-1,5,6,7-tetrahydro-4H-pyrrolo[3,2-c]pyridin-4-one] | 13.8 µM | 0.0659 µM | 1.04 µM |  | 
COc1c(Nc2c(-c3ccncc3OCC3CCO3)[nH]c3c2C(=O)NCC3)ccc(F)c1Cl (racemic) [Example 13, 3-(3-chloro-4-fluoro-2-methoxyanilino)-2-{3-[(oxetan-2-yl)methoxy]pyridin-4-yl}-1,5,6,7-tetrahydro-4H-pyrrolo[3,2-c]pyridin-4-one] | > 20 µM | 0.348 µM | 2.3 µM |  | 
COc1c(F)cccc1Nc1c(-c2ccncc2OCC2(C)CCO2)[nH]c2c1C(=O)NCC2 (racemic) [Example 19, 3-(3-fluoro-2-methoxyanilino)-2-{3-[(2-methyloxetan-2-yl)methoxy]pyridin-4-yl}-1,5,6,7-tetrahydro-4H-pyrrolo[3,2-c]pyridin-4-one] | 13.7 µM and > 20 µM | 0.0667 µM | 2.06 µM |  | 
COc1c(Cl)cccc1Nc1c(-c2ccncc2OCCC2CCO2)[nH]c2c1C(=O)NCC2 (racemic) [Example 24, 3-(3-chloro-2-methoxyanilino)-2-{3-[2-(oxetan-2-yl)ethoxy]pyridin-4-yl}-1,5,6,7-tetrahydro-4H-pyrrolo[3,2-c]pyridin-4-one] | 2.7 µM | 0.0175 µM | 0.636 µM |  | 
COc1c(Br)cccc1Nc1c(-c2ccncc2OCC2CCO2)[nH]c2c1C(=O)NCC2 (racemic) [Example 33, 3-(3-bromo-2-methoxyanilino)-2-{3-[(oxetan-2-yl)methoxy]pyridin-4-yl}-1,5,6,7-tetrahydro-4H-pyrrolo[3,2-c]pyridin-4-one] | 8.06 µM | 0.0328 µM | 1.12 µM |  | 
Cc1cccc(Nc2c(-c3ccncc3OCC3CCO3)[nH]c3c2C(=O)NCC3)c1Cl (racemic) [Example 37, 3-(2-chloro-3-methylanilino)-2-{3-[(oxetan-2-yl)methoxy]pyridin-4-yl}-1,5,6,7-tetrahydro-4H-pyrrolo[3,2-c]pyridin-4-one] | 11.7 µM | 0.105 µM | 0.942 µM |  | 
Cc1c(Cl)cc(F)cc1Nc1c(-c2ccncc2OCC2CCO2)[nH]c2c1C(=O)NCC2 (racemic) [Example 40, 3-(3-chloro-5-fluoro-2-methylanilino)-2-{3-[(oxetan-2-yl)methoxy]pyridin-4-yl}-1,5,6,7-tetrahydro-4H-pyrrolo[3,2-c]pyridin-4-one] | 10.5 µM | 0.115 µM | 2.98 µM |  | 
COc1c(F)cccc1Nc1c(-c2ccncc2OCCC2CCO2)[nH]c2c1C(=O)NCC2 (racemic) [Example 43, 3-(3-fluoro-2-methoxyanilino)-2-{3-[2-(oxetan-2-yl)ethoxy]pyridin-4-yl}-1,5,6,7-tetrahydro-4H-pyrrolo[3,2-c]pyridin-4-one] | 3.5 µM | 0.0115 µM | 0.262 µM |  | 
COc1c(Cl)cccc1Nc1c(-c2ccncc2OCC2(C)CCO2)[nH]c2c1C(=O)NCC2 (racemic) [Example 46, 3-(3-chloro-2-methoxyanilino)-2-{3-[(2-methyloxetan-2-yl)methoxy]pyridin-4-yl}-1,5,6,7-tetrahydro-4H-pyrrolo[3,2-c]pyridin-4-one] | 10.2 µM | 0.067 µM | 0.966 µM |  | 
CC1(C)COC1COc1cnccc1-c1[nH]c2c(c1Nc1cccc(Cl)c1OC(F)F)C(=O)NCC2 (racemic) [Example 71, 3-[3-chloro-2-(difluoromethoxy)anilino]-2-(3-{[3,3-dimethyloxetan-2-yl]methoxy}pyridin-4-yl)-1,5,6,7-tetrahydro-4H-pyrrolo[3,2-c]pyridin-4-one] | > 20 µM | 0.122 µM |  |  | 
COc1c(Cl)cc(F)cc1Nc1c(-c2ccncc2OCC2CCO2)[nH]c2c1C(=O)NCC2 (single isomer, unassigned) [Example 67, 3-(3-chloro-5-fluoro-2-methoxyanilino)-2-(3-{[oxetan-2-yl]methoxy}pyridin-4-yl)-1,5,6,7-tetrahydro-4H-pyrrolo[3,2-c]pyridin-4-one] | > 20 µM |  |  | 5.68 µM | 
CC1(COc2cnccc2-c2[nH]c3c(c2Nc2cccc(Cl)c2OC(F)F)C(=O)NCC3)CCO1 (single isomer, unassigned) [Example 75, 3-[3-chloro-2-(difluoromethoxy)anilino]-2-(3-{[2-methyloxetan-2-yl]methoxy}pyridin-4-yl)-1,5,6,7-tetrahydro-4H-pyrrolo[3,2-c]pyridin-4-one] |  | 0.305 µM |  |  | > 20 µM
COc1c(F)cccc1Nc1c(-c2ccncc2OCC2(C)CCO2)[nH]c2c1C(=O)NCC2 (single isomer, unassigned; (-)) [Example 20, (−)-3-(3-fluoro-2-methoxyanilino)-2-{3-[(2-methyloxetan-2-yl)methoxy]pyridin-4-yl}-1,5,6,7-tetrahydro-4H-pyrrolo[3,2-c]pyridin-4-one] | 11.8 µM and > 20 µM |  |  |  | 14.5 µM
COc1c(F)cccc1Nc1c(-c2ccncc2OCC2OCC2(C)C)[nH]c2c1C(=O)NCC2 (single isomer, unassigned; (-)) [Example 53, (−)-2-{3-[(3,3-dimethyloxetan-2-yl)methoxy]pyridin-4-yl}-3-(3-fluoro-2-methoxyanilino)-1,5,6,7-tetrahydro-4H-pyrrolo[3,2-c]pyridin-4-one] | > 20 µM |  |  | 1.13 µM | 
COc1c(Cl)cccc1Nc1c(-c2ccncc2OCC2CCO2)[nH]c2c1C(=O)NCC2 (stereo not drawn) [Example 1, 3-(3-chlor-2-methoxyanilino)-2-[3-(oxetan-2-ylmethoxy)pyridin-4-yl]-1,5,6,7-tetrahydro-4H-pyrrolo[3,2-c]pyridin-4-on] |  | 0.0251 µM | 0.789 µM |  | 
COc1c(Cl)cccc1Nc1c(-c2ccncc2OC[C@H]2CCO2)[nH]c2c1C(=O)NCC2 [Example 3, 3-(3-chloro-2-methoxyanilino)-2-(3-{[(2R)-oxetan-2-yl]methoxy}pyridin-4-yl)-1,5,6,7-tetrahydro-4H-pyrrolo[3,2-c]pyridin-4-one] | 4.51 µM | 0.136 µM |  |  | 
COc1c(F)cccc1Nc1c(-c2ccncc2OC[C@H]2CCO2)[nH]c2c1C(=O)NCC2 [Example 6, 3-(3-fluoro-2-methoxyanilino)-2-(3-{[(2R)-oxetan-2-yl]methoxy}pyridin-4-yl)-1,5,6,7-tetrahydro-4H-pyrrolo[3,2-c]pyridin-4-one] | > 13.3 µM | 0.276 µM |  |  | 
O=C1NCCc2[nH]c(-c3ccncc3OCC3CCO3)c(Nc3cccc4c3CCC4)c21 (stereo not drawn) [Example 36, 3-[(2,3-dihydro-1H-inden-4-yl)amino]-2-{3-[(oxetan-2-yl)methoxy]pyridin-4-yl}-1,5,6,7-tetrahydro-4H-pyrrolo[3,2-c]pyridin-4-one] | > 20 µM | 0.377 µM |  |  | 
